Experimental data as given in article PMC4920072, “Peptide:glycosaminoglycan hybrid hydrogels as an injectable intervention for spinal disc degeneration” (Journal of Materials Chemistry. B, Materials for Biology …, 2016).

Key:
Type in all cases: physicochemical
[1] = Visually observed gelation time / physical state of peptide and peptide:GAG samples; conditions: for Time to gel: peptide concentration = 20 mg/ml, typical gelation times
Experimental: Therefore the GAGs must be directly interacting with the peptides via physical bonds to enhance their gelation.
c.) 200 P11-12 1-9 days Wavenumbers (cm-1) Wavenumbers (cm-1) […]
Figure S1. […]
Peptide GAG ratio Time to gel ( peptide concentration = 20 mg/ml)
P11-4 1:2 Seconds-minutes
Table S1. Typical gelation times in 20mg/ml samples
(also on this page, place not known: (cm -1 ) (cm -1 ) (cm -1 ) Estimated monomer (µM) Aromatic 0 / µM Apparent critical relative integral 0.125 mM TMSP concentration to concentration Seconds-minutesP11-4 SecondsP11-8 SecondsP11-9 P11-12) […]
Figure S3. From left to right P11-12, P11-12:PEG (Mw 10k), P11-12:PEG (Mw 100k). 130 mM NaCl in D2O, PEG added at same wt% as 1:10
Pep:GAG ratio. All samples = liquid

[2] = Transmission electron microscopy of peptide and peptide:GAG aggregates; conditions: TEM, uranyl acetate negative stain; for Twist pitch: peptide alone, 130 mM NaCl in D2O
Excerpt: We observe that incorporation of GAGs into peptide hydrogels also modifies their microscopic properties. Transmission electron microscopy images reveal pronounced differences in the fibril morphologies (Fig. 3a and Fig. S2, S3, ESI ^‡). Broadly speaking, the changes in gel structure between peptide-only and peptide:GAG gels are very similar. In peptide-only gels, the fibril widths are of the order of 10 nm. This compares to peptide:GAG gels where the fibrils align and cluster together with bundle diameters of the order of 100 nm. […] Transmission electron microscopy of uranyl acetate stained samples were carried out on a Philips CM10/Jeol JEM1400 electron microscope operating at 80/120 kV. Fourier transform infra-red spectra were acquired with a Thermo Scientific Nicolet 6700 FTIR spectrometer. […] TFA has a FTIR band located at 1673 cm-1 and peptides with greater number of arginine and ornithine residues will contain more TFA and therefore a large TFA peak in the FTIR spectra. Transmission electron microscopy, TEM P11-9 and P11-9:GAG samples were prepared in DPBS (Dubeccos phosphate buffered saline, Sigma Aldrich), solution containing 0.04% NaN3, (Sodium azide, Sigma Aldrich, 99%)to prevent bacterial growth. The samples were vortexed for 20 seconds, and then sonicated for 30 minutes. Solution pH was measured and adjusted to 7.4 ± 0.3. Any adjustment of pH, if necessary, was made with μL volumes of 0.1 to 1 mol dm-3 HCL (Hydrochloric acid, Fisher Scientific, analytical reagent grade, 37% wt diluted with purified water), and/or 0.1 to 1 mol dm-3 NaOH (Sodium hydroxide pellets, Fisher […], analytical grade, dissolved in and diluted with purified water). Solution vials were closed, sealed with PTFE tape, and then warmed to approximately 80 °C to maximise peptide solubility. Following warming GAG powder was added to the peptide solutions and the mixture was vortexed to ensure complete mixing The resulting gels were left to equilibrate for approximately four and a half months. For P11-4, P11-8 and P11-12, samples with and without GAG prepared for FTIR were used, these were left to equillibriate for 4 days prior to TEM grid preparation. The gels were then diluted (20 μl of sample in 60 μl D2O) minutes prior to addition to the TEM grids. Glow discharged carbon film coated copper TEM grids (Agar Scientific) were touched onto the peptide and peptide:gag solutions for one minute. The grid was air-dried and then negatively stained with uranyl acetate solution (2% w/v) for 20 seconds and air-dried. TEM images for P11-4, P11-8 and P11-12, samples with and without GAG were obtained using a Jeol JEM1400 transmission electron microscope operating […] voltage. TEM images of […] with and without GAG were obtained using a Philips CM10 electron microscope operating at 80 kV accelerating voltage. Rheometry Peptide and peptide:GAG samples were prepared in DPBS (Dubeccos phosphate buffered saline, Sigma Aldrich), solution containing 0.04% NaN3 (sodium azide, Sigma Aldrich, 99%). The samples were vortexed for 20 seconds, and then sonicated for 30 minutes. Solution pH was measured and adjusted to 7.4 ± 0.3. Any adjustment of pH, if necessary, was made with μL volumes of 0.1 to 1 mol dm-3 HCL (hydrochloric acid, Fisher Scientific, analytical reagent grade, 37% wt diluted with purified water), and/or 0.1 to 1 mol dm-3 NaOH (Sodium hydroxide pellets, Fisher […], analytical grade, dissolved in and diluted with purified water). Solution vials were closed, sealed with PTFE tape, and then warmed to approximately 80 °C to maximise peptide solubility. Following warming GAG powder was added to the peptide solutions and the mixture was vortexed to ensure complete mixing The resulting gels were left to equilibrate at room temperature (P11-4 20 days, P11-8 1.5 months, P11-9 one month and P11-12 two months). Rheometry measurements used a Malvern Kinexus Pro rheometer with a cone-plate geometry (cone angle: 1O, diameter: 50 mm, gap: 0.033 mm). […]

[3] = 1H NMR of free peptide monomer concentration (apparent critical aggregation concentration c*, equilibration); conditions: 1H NMR aromatic region integral relative to TMSP, 130 mM NaCl in D2O, pD 7.4, room temperature
Experimental: NMR characterisation of the free peptide monomer concentration that coexists in equilibrium with the peptide fibrils (and therefore the apparent c*) is found to decrease in the presence of GAG (Fig. 2a and Fig. S1a, ESI ^‡).
The thermodynamics are affected by the presence of GAG.
^1H Nuclear Magnetic Resonance spectra were recorded on a Bruker DPX300 300 MHz spectrometer. Transmission electron microscopy of uranyl acetate stained samples were carried out on a Philips CM10/Jeol JEM1400 electron microscope operating at 80/120 kV. Fourier transform infra-red spectra were acquired with a Thermo Scientific Nicolet 6700 FTIR spectrometer. Rheological measurements used a Malvern Kinexus Pro rheometer with a cone-plate geometry. […]
Peptide and peptide:GAG samples were prepared directly in D2O (Deuterium Oxide, Sigma Aldrich 99.9% D) containing 130 mM NaCl (Sodium Chloride, Fisher Scientific, analytical grade) and […] TMSP (deuterated Sodium 3-(trimethylsilyl)propionate-2,2,3,3-d4, Cambridge Isoptope Labortatories, chemical shift 0 ppm) an internal reference standard. […] Solution pD was measured and adjusted to 7.4 ± 0.3 using the relation pD = pH + 0.4.[1] […]
NMR data were acquired at room temperature with a Bruker DPX 300 spectrometer, operating at 300 MHz (5 mm probe, spectral width 5995 Hz). A presaturation program was used to minimize the water peak, and 1024 scans were measured per spectrum. […]

[4] = Control (peptide only, no GAG), visually observed, room temperature
[5] = peptide : GAG ratio 1:2, visually observed, room temperature
[6] = peptide : GAG ratio 1:10, visually observed, room temperature
[7] = peptide alone or peptide:GAG 1:10
[8] = peptide alone or peptide:GAG 1:10, 20 mg/ml, 130 mM NaCl in D2O (P11-9 samples in DPBS)

Substance | Time to gel [1, 4] | Time to gel [1, 5] | Time to gel [1, 6] | Morphology [2, 7] | Ribbon width [2, 8] [nm] | Fibril width [2, 8] [nm] | Twist pitch ([2]; 20 mg/ml) [nm] | Physical state of sample (gel or liquid) ([1]; 130 mM NaCl in D2O, PEG added at same wt% as 1:10 Pep:GAG ratio) | Time to gel ([1]; peptide : GAG ratio 1:50, visually observed, room temperature) | Time to gel ([1]; peptide : GAG ratio 1:100, visually observed, room temperature) | Gelation time ([1]; when higher GAG ratios were used, visually observed, room temperature) | Time for the monomer concentration to equilibrate ([3]; GAG present at peptide : GAG ratio of 1 : 5) | Time for the monomer concentration to equilibrate ([3]; peptide only) | Large loose bundle /fibre width [2, 8] [nm]
Ac-SSRFEWEFESS-NH2 [P11-9] | Minutes | Seconds | Seconds | Ribbons | 4 ± 1 |  |  |  |  |  |  |  |  | 
CH3CO-Q-Q-R-F-O-W-O-F-E-Q-Q-NH2 [P11-8] | days | seconds | Seconds | Twisted fibrils | 5.06 | 13.2 | 135.2 ± 22.1 |  |  |  |  |  |  | 
CH3CO-S-S-R-F-O-W-O-F-E-S-S-NH2 [P11-12] | Minutes | Seconds | Seconds | Twisted fibrils and ribbons | 5.0 ± 0.8 | 10.1 | 114.3 ± 10.3 | liquid | Spontaneous | Spontaneous | instantaneously | less than a week | within two months | 43.7 ± 11.5
Ac-QQRFEWEFEQQ-NH2 [P11-4] | Minutes -hours | Seconds-minutes | Seconds | Twisted fibrils |  | 14.6 | 76.6 ± 17.1 |  |  |  |  |  |  | 
